Laboratory results reported in BindingDB's records for patent US20240217978 (Chong Kun Dang Pharmaceutical, 2024).

Molecular target: Adenosine receptor A2a (Homo sapiens, UniProt P29274)
Assay: Evaluation of A2a Receptor Binding Affinity
Procedure: A radioligand binding test was conducted by using [3H]-NECA (5′-N-[adenine-2,8-3H]-ethylcarboxamidoadenosine) and an adenosine A2a membrane. As the adenosine A2a membrane, a cell membrane prepared from HEK-293 cells transfected with human adenosine A2a receptor was used. The membrane used for the test was prepared by incubating with a radioligand until equilibrium was reached. In order to separate the radioligand-bound membrane, the unbound radioligand was separated by using Packard filtermate Harverster and glass filter plates.10 μL of test compound dissolved in binding buffer (50 mM Tris, 10 mM MgCl2, 1 mM EDTA pH 7.4) and 20 μL of [3H]-NECA (final concentration of 37 nM) or reference inhibitor was mixed with 20 μL of A2a membrane in an unbound 96-well plate and incubated at room temperature for one hour. Prior to filtration, a 96-well harvest filter plate was coated with 0.33% polyethylenimine for 30 minutes and then washed with assay buffer. The binding reaction was transferred to the filter plate and washed three times with wash buffer. The dish was then dried, scintillant was added, and radioactivity was counted in a scintillation counter (Topcount NXT, Packard).

Adenosine receptor A2a, sequence (P29274 whole entry): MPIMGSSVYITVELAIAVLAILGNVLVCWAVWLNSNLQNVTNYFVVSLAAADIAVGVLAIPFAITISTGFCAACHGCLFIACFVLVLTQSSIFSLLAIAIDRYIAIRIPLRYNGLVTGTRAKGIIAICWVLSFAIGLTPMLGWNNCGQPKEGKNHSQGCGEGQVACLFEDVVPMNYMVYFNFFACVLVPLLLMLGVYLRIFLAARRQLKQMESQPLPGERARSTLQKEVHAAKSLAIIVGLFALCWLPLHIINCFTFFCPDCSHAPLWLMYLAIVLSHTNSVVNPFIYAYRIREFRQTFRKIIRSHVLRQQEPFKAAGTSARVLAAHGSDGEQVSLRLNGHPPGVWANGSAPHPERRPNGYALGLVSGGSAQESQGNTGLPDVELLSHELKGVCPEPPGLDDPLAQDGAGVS

IC50	SMILES
2 nM	Nc1nc(N2CCC[C@H]2C(=O)N2CCC(C(=O)Nc3cccc(F)c3)CC2)nc2nc(-c3ccco3)nn12 [US20240217978, Example 130]
10 nM	CCNC(=O)N1CCN(C(=O)[C@@H]2CCCN2c2nc(N)n3nc(-c4ccco4)nc3n2)CC1 [US20240217978, Example 115]
12 nM	Nc1nc(N2CCC[C@H]2C(=O)N2CCCN(c3ncccn3)CC2)nc2nc(-c3ccco3)nn12 [US20240217978, Example 277]
